From the NIST ThermoML archive (doi:10.1016/j.jct.2009.04.005)
± gives the expanded uncertainty stated by the source.

Details: 298.15 K, Liquid; for vapor or sublimation pressure: Closed cell (Static) method; for mass density: Vibrating tube method

vapor or sublimation pressure [kPa]	mass density [kg/m3]	SMILES
2.34 ± 0.02	802.451 ± 0.31	CCC(C)O (stereo not drawn) [butan-2-ol]
0.91 ± 0.012	805.802 ± 0.15	CCCCO [butan-1-ol]
20.22 ± 0.05	654.96 ± 0.33	CCCCCC [hexane]

SMILES	vapor or sublimation pressure [kPa]	mass density [kg/m3]
CCCCCl [1-chlorobutane]	13.52 ± 0.034	880.805 ± 0.3
